# “Also recorded” adds a separate entry of the source. Read-outs that look alike come from different tables or passages of the source.
# Test system: rat UUO model of acute kidney injury and chronic kidney disease
# Format: in vivo
# Excerpt: Composite data represents the average of 3 anatomically distinct depths (10 images/depth/rat/group=˜60-65% of renal cortical area).
# [1] = rat serum, Day 7 post UUO, all groups, dose dependent, relative to the positive control group
Compound,IL-6 (marker of inflammation) (UUO model),"fibrosis (collagen volume fraction, total collagen deposition via PicoSirius Red) (daily administration, dose dependent, relative to the positive control group)",UUO-induced increases in renal cortical CVF (dosed at 0.3 mg/kg),UUO-induced increases in renal cortical CVF (dosed at 0.9 mg/kg),"IL-1β (marker of inflammation) (rat serum, Day 7 post UUO)","IL-18 (marker of inflammation) (rat serum, Day 7 post UUO)",circulating anti-inflammatory interleukin-10 (IL-10) [1],circulating hepcidin [1],circulating neutrophil gelatinase-associated lipocalin (NGAL) [1],"circulating transforming growth factor-β (TGF-β) (rat serum, Day 7 post UUO, daily administration, dose dependent, relative to the positive control group)","UUO-induced increases in renal cortical CVF (reference compound, dose not given)"
phosphorylated hexaacyl disaccharide [REVTx-300],no increase,significant reduction; also recorded: Dose-dependent reduction,attenuated,attenuated,relatively minor increase,relatively minor increase,significantly increased,significantly increased,significantly increased,significant reduction,
"Cc1cccc(-c2[nH]c(C(C)(C)C)nc2-c2ccc3nccnc3c2)n1 [SB-525334, reference compound]",,,,,,,,,,,attenuated

# Source: patent US20250339454A1, “COMPOSITIONS AND METHODS FOR THE PREVENTION OF LOSS OF ORGAN FUNCTION ASSOCIATED WITH CHRONIC ORGAN DISEASE” (Revelation Biosciences, Inc., priority 2023, published 2025)
